Assay results taken from PubChem BioAssay AID248 (DTP/NCI, 2004).
Several values for one entry are separate records, joined by “and”; a condition that tells them apart may be missing. Identical values can stand only once. Inconclusive results and toxic doses are left out. Cut-off read from the data, not from the text of the source: active = T/C of 150% or more; inactive = T/C below 125%.

Tested on: L1210 leukemia ip in BDF1 mice, survival T/C
Assay: NCI In Vivo Anticancer Drug Screen. Data for tumor model L1210 Leukemia (intraperitoneal) in B6D2F1 (BDF1) mice
Conditions: endpoint: mean survival time, higher = longer survival
In short: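 In this screen, tumor-bearing mice given compound are compared to those given vehicle, and their survival values are reported as a treated-to-control quotient.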

[1] = dose: 100.0 mg/kg/injection, schedule: Q04DX002 (ip), vehicle: Klucel (hydroxypropylcellulose) (HPC)
[2] = dose: 100.0 mg/kg/injection, schedule: Q01DX001 (ip), vehicle: saline
[3] = dose: 200.0 mg/kg/injection, schedule: Q01DX001 (ip), vehicle: saline
[4] = dose: 75.0 mg/kg/injection, schedule: Q01DX001 (ip), vehicle: saline
[5] = dose: 150.0 mg/kg/injection, schedule: Q01DX001 (ip), vehicle: saline
[6] = dose: 100.0 mg/kg/injection, schedule: Q01DX009 (ip), vehicle: Klucel (hydroxypropylcellulose) (HPC)
[7] = dose: 100.0 mg/kg/injection, schedule: Q04DX003 (ip), vehicle: Klucel (hydroxypropylcellulose) (HPC)
[8] = dose: 200.0 mg/kg/injection, schedule: Q01DX009 (ip), vehicle: Klucel (hydroxypropylcellulose) (HPC)
[9] = dose: 200.0 mg/kg/injection, schedule: Q04DX003 (ip), vehicle: Klucel (hydroxypropylcellulose) (HPC)
[10] = dose: 400.0 mg/kg/injection, schedule: Q01DX009 (ip), vehicle: Klucel (hydroxypropylcellulose) (HPC)
[11] = dose: 400.0 mg/kg/injection, schedule: Q04DX003 (ip), vehicle: Klucel (hydroxypropylcellulose) (HPC)
[12] = dose: 400.0 mg/kg/injection, schedule: Q01DX001 (ip), vehicle: saline
[13] = dose: 100.0 mg/kg/injection, schedule: Q04DX003 (ip), vehicle: saline with Tween-80
[14] = dose: 200.0 mg/kg/injection, schedule: Q04DX003 (ip), vehicle: saline with Tween-80
[15] = dose: 400.0 mg/kg/injection, schedule: Q04DX003 (ip), vehicle: saline with Tween-80
[16] = dose: 100.0 mg/kg/injection, schedule: Q01DX009 (ip), vehicle: saline
[17] = dose: 100.0 mg/kg/injection, schedule: Q04DX003 (ip), vehicle: saline
[18] = dose: 200.0 mg/kg/injection, schedule: Q04DX003 (ip), vehicle: saline
[19] = dose: 25.0 mg/kg/injection, schedule: Q01DX009 (ip), vehicle: saline
[20] = dose: 50.0 mg/kg/injection, schedule: Q01DX009 (ip), vehicle: saline

Measured: T/C

Nc1ccc(Sc2ccc(N)cc2)cc1
inactive: dose: 12.5 mg/kg/injection, schedule: Q04DX002 (ip), vehicle: Klucel (hydroxypropylcellulose) (HPC) 106 % of control | dose: 25.0 mg/kg/injection, schedule: Q04DX002 (ip), vehicle: Klucel (hydroxypropylcellulose) (HPC) 116 % of control | dose: 50.0 mg/kg/injection, schedule: Q04DX002 (ip), vehicle: Klucel (hydroxypropylcellulose) (HPC) 106 % of control | [1] 103 % of control

Nc1ccc(OCC(=O)Nc2ccc(S(=O)(=O)F)cc2)cc1
inactive: [2] 101 % of control | [3] 103 % of control

CNCc1ccccc1Cc1ccccc1
inactive: [4] 100 % of control | [5] 97 % of control | dose: 300.0 mg/kg/injection, schedule: Q01DX001 (ip), vehicle: saline 95 % of control

CCCCOC(OCCCC)C(C)=O
inactive: [6] 96 % of control | [7] 113 % of control | [8] 96 % of control | [9] 92 % of control | [10] 101 % of control | [11] 102 % of control

O=C(O)C1OC(n2cc(F)c(=O)[nH]c2=O)CC1O (configuration not stated)
inactive: dose: 50.0 mg/kg/injection, schedule: Q01DX001 (ip), vehicle: saline 101 % of control | [2] 101 % of control | [3] 98 % of control | [12] 110 % of control

C[CH2][Hg][S]c1nsc([S][Hg][CH2]C)n1
inactive: dose: 1.56 mg/kg/injection, schedule: Q01DX009 (ip), vehicle: Klucel (hydroxypropylcellulose) (HPC) 110 % of control | dose: 3.12 mg/kg/injection, schedule: Q01DX009 (ip), vehicle: Klucel (hydroxypropylcellulose) (HPC) 119 % of control | dose: 6.25 mg/kg/injection, schedule: Q01DX009 (ip), vehicle: Klucel (hydroxypropylcellulose) (HPC) 121 % of control | dose: 12.5 mg/kg/injection, schedule: Q01DX009 (ip), vehicle: Klucel (hydroxypropylcellulose) (HPC) 117 % of control | dose: 25.0 mg/kg/injection, schedule: Q01DX009 (ip), vehicle: Klucel (hydroxypropylcellulose) (HPC) 100 % of control

O=C(O)/C(=C\c1ccc(Cl)cc1)c1cccc2ccccc12
inactive: dose: 50.0 mg/kg/injection, schedule: Q04DX003 (ip), vehicle: Klucel (hydroxypropylcellulose) (HPC) 92 % of control | [6] 98 % of control | [8] 100 % of control | [9] 87 % of control

CC(C)(CO)Nc1ccccc1
inactive: [13] 114 % of control | [14] 90 % of control | [15] 97 % of control

CCOC(=O)CCN(C)C
inactive: [16] 104 % of control | dose: 200.0 mg/kg/injection, schedule: Q01DX009 (ip), vehicle: saline 101 % of control | dose: 400.0 mg/kg/injection, schedule: Q01DX009 (ip), vehicle: saline 98 % of control

Cc1ccc2c(ccc3ccccc32)n1
inactive: [7] 97 % of control | [9] 90 % of control | [11] 90 % of control

NC(=S)N/N=C/c1ccns1
inactive: dose: 100.0 mg/kg/injection, schedule: Q04DX002 (ip), vehicle: saline with Tween-80 109 % of control | dose: 200.0 mg/kg/injection, schedule: Q04DX002 (ip), vehicle: saline with Tween-80 97 % of control | dose: 400.0 mg/kg/injection, schedule: Q04DX002 (ip), vehicle: saline with Tween-80 103 % of control

COc1cc(-c2cc(-c3ccccc3)c3ccccc3n2)cc(OC)c1OC
inactive: [6] 97 % of control | [8] 100 % of control | [10] 96 % of control

CCCCCCC(C)C(COC(=O)c1ccc([N+](=O)[O-])cc1)NCC (configuration not stated)
inactive: [4] 93 % of control | [5] 96 % of control

Cc1ccc(S(=O)(=O)C[n+]2cc(C)cc(C)c2)cc1
inactive: [17] 95 % of control | [18] 103 % of control

CCCCCCCCCCCNC=O
inactive: [2] 103 % of control | [3] 101 % of control | [12] 101 % of control

Cc1cc(C)c(Sc2cc(C)sc2C)c(C)c1
inactive: dose: 100.0 mg/kg/injection, schedule: Q01DX001 (ip), vehicle: acetone 91 % of control | dose: 100.0 mg/kg/injection, schedule: Q04DX003 (ip), vehicle: acetone 91 % of control | dose: 200.0 mg/kg/injection, schedule: Q01DX001 (ip), vehicle: acetone 91 % of control | dose: 200.0 mg/kg/injection, schedule: Q04DX003 (ip), vehicle: acetone 91 % of control | dose: 400.0 mg/kg/injection, schedule: Q01DX001 (ip), vehicle: acetone 91 % of control | dose: 400.0 mg/kg/injection, schedule: Q04DX003 (ip), vehicle: acetone 100 % of control

CCCCCCCCCCCCCC[Si](Cl)(Cl)Cl
inactive: [4] 94 % of control | [5] 92 % of control

O=C(OCc1ccccc1CN1CCOCC1)c1ccccc1
inactive: [1] 98 % of control | dose: 200.0 mg/kg/injection, schedule: Q04DX002 (ip), vehicle: Klucel (hydroxypropylcellulose) (HPC) 105 % of control | dose: 400.0 mg/kg/injection, schedule: Q04DX002 (ip), vehicle: Klucel (hydroxypropylcellulose) (HPC) 96 % of control

CCOC(=O)C1CC(C(=O)OCC)C(=O)C1=O (configuration not stated)
inactive: [13] 100 % of control | [14] 99 % of control | [15] 86 % of control

CCCc1[nH]nc(C(=O)OC)c1N=NN(C)C
inactive: dose: 173.0 mg/kg/injection, schedule: Q01DX001 (ip), vehicle: other 110 % of control | dose: 266.0 mg/kg/injection, schedule: Q01DX001 (ip), vehicle: other 112 % of control | dose: 400.0 mg/kg/injection, schedule: Q01DX001 (ip), vehicle: other 115 % of control | dose: 600.0 mg/kg/injection, schedule: Q01DX001 (ip), vehicle: other 123 % of control

CC(C)(C)C(=O)CC(=O)C(C)(C)C.CC(C)(C)C(=O)CC(=O)C(C)(C)C.CC(C)(C)C(=O)CC(=O)C(C)(C)C.[Gd]
inactive: [13] 101 % of control | [14] 101 % of control | [15] 92 % of control

O=S(=O)(O)c1ccccc1O
inactive: [19] 101 % of control | [20] 98 % of control

CNCCCN(C)CCCNC
inactive: [19] 100 % of control | dose: 25.0 mg/kg/injection, schedule: Q04DX003 (ip), vehicle: saline 96 % of control | [20] 101 % of control | dose: 50.0 mg/kg/injection, schedule: Q04DX003 (ip), vehicle: saline 104 % of control | [16] 94 % of control | [17] 99 % of control and 102 % of control

CN=C(N)c1ccc(C(=O)OCCOC)cc1
inactive: [2] 96 % of control | [3] 107 % of control | [12] 105 % of control

CC1CNC(=O)C(=O)N1 (configuration not stated)
inactive: dose: 100.0 mg/kg/injection, schedule: Q04DX002 (ip), vehicle: saline 98 % of control | dose: 200.0 mg/kg/injection, schedule: Q04DX002 (ip), vehicle: saline 102 % of control | dose: 400.0 mg/kg/injection, schedule: Q04DX002 (ip), vehicle: saline 94 % of control

CCN(CC)CCOC(=O)c1cccc2[nH]ccc12
inactive: [17] 104 % of control | [18] 109 % of control
